Laboratory results reported in PubChem BioAssay (NCI).
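Grown in 96-well plates, cells were treated for 48 hours with each compound at five concentrations. Insufficient inhibition: endpoint recorded as highest concentration tested. TGI denotes the concentration required for complete inhibition of growth.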

How the values were obtained:
Assay in all cases: NCI tumour cell line growth inhibition, 48 h
[1] = system: RXF 393 renal
[2] = system: OVCAR-5 ovarian
[3] = system: DU-145 prostate
[4] = system: KM12 colon
[5] = system: EKVX NSCLC
[6] = system: T-47D breast
[7] = system: MCF7 breast
[8] = system: IGROV1 ovarian
[9] = system: OVCAR-4 ovarian
[10] = system: M14 melanoma
[11] = system: HCT-15 colon
[12] = system: SK-MEL-2 melanoma
[13] = system: RPMI-8226 leukemia
[14] = system: SN12C renal
[15] = system: CCRF-CEM leukemia
[16] = system: LOX IMVI melanoma
[17] = system: NCI-H460 lung
[18] = system: HOP-62 NSCLC
[19] = system: SR leukemia
[20] = system: SNB-19 CNS
[21] = system: OVCAR-8 ovarian
[22] = system: 786-0 renal
[23] = system: A498 renal
[24] = system: MOLT-4 leukemia
[25] = system: OVCAR-3 ovarian
[26] = system: SF-295 CNS
[27] = system: A549 NSCLC
[28] = system: SK-MEL-5 melanoma
[29] = system: SNB-75 CNS
[30] = system: PC-3 prostate
[31] = system: HS 578T breast
[32] = system: HT29 colon
[33] = system: TK-10 renal
[34] = system: SF-268 CNS
[35] = system: NCI-H226 lung
[36] = system: BT-549 breast
[37] = system: SF-539 CNS
[38] = system: HCT-116 colon
[39] = system: MDA-N
[40] = system: UACC-257 melanoma
[41] = system: SW-620 colon
[42] = system: ACHN renal
[43] = system: UO-31 renal
[44] = system: NCI/ADR-RES ovarian
[45] = system: MDA-MB-231 breast
[46] = system: COLO 205 colon
[47] = system: NCI-H522 lung
[48] = system: SK-MEL-28 melanoma
[49] = system: SK-OV-3 ovarian
[50] = system: CAKI-1 renal
[51] = system: MDA-MB-435
[52] = system: U251 CNS
[53] = system: UACC-62 melanoma
[54] = system: MALME-3M melanoma
[55] = system: NCI-H23 lung
[56] = system: HCC-2998 colon
[57] = system: HOP-92 NSCLC
[58] = system: K-562 leukemia
[59] = system: HL-60(TB) leukemia

## NC(=O)C1=NNc2ccccc2C(=O)N1c1ccccc1
[1]
  TGI: > 100 µM
[2]
  TGI: > 100 µM
[3]
  TGI: > 100 µM
[4]
  TGI: > 100 µM
[5]
  TGI: > 100 µM
[6]
  TGI: > 100 µM
[7]
  TGI: > 100 µM
[8]
  TGI: > 100 µM
[9]
  TGI: > 100 µM
[10]
  TGI: > 100 µM
[11]
  TGI: > 100 µM
[12]
  TGI: > 100 µM
[13]
  TGI: > 100 µM
[14]
  TGI: > 100 µM
[15]
  TGI: > 100 µM
[16]
  TGI: > 100 µM
[17]
  TGI: > 100 µM
[18]
  TGI: > 100 µM
[19]
  TGI: > 100 µM
[20]
  TGI: > 100 µM
[21]
  TGI: > 100 µM
[22]
  TGI: > 100 µM
[23]
  TGI: > 100 µM
[24]
  TGI: > 100 µM
[25]
  TGI: > 100 µM
[26]
  TGI: > 100 µM
[27]
  TGI: > 100 µM
[28]
  TGI: > 100 µM
[29]
  TGI: > 100 µM
[30]
  TGI: > 100 µM
[31]
  TGI: > 100 µM
[32]
  TGI: > 100 µM
[33]
  TGI: > 100 µM
[34]
  TGI: > 100 µM
[35]
  TGI: > 100 µM
[36]
  TGI: > 100 µM
[37]
  TGI: > 100 µM
[38]
  TGI: > 100 µM
[39]
  TGI: > 100 µM
[40]
  TGI: > 100 µM
[41]
  TGI: > 100 µM
[42]
  TGI: > 100 µM
[43]
  TGI: > 100 µM
[44]
  TGI: > 100 µM
[45]
  TGI: > 100 µM
[46]
  TGI: > 100 µM
[47]
  TGI: > 100 µM
[48]
  TGI: > 100 µM
[49]
  TGI: > 100 µM
[50]
  TGI: > 100 µM
[51]
  TGI: > 100 µM
[52]
  TGI: > 100 µM
[53]
  TGI: > 100 µM
[54]
  TGI: > 100 µM

## OC12COc3ccccc3C1Oc1ccccc1C2 (centres undefined)
[2]
  TGI: > 100 µM
[3]
  TGI: > 100 µM
[4]
  TGI: > 100 µM
[5]
  TGI: > 100 µM
[6]
  TGI: > 100 µM
[7]
  TGI: > 100 µM
[8]
  TGI: > 100 µM
[9]
  TGI: > 100 µM
[10]
  TGI: > 100 µM
[55]
  TGI: > 100 µM
[11]
  TGI: > 100 µM
[12]
  TGI: > 100 µM
[13]
  TGI: > 100 µM
[14]
  TGI: > 100 µM
[15]
  TGI: > 100 µM
[16]
  TGI: > 100 µM
[18]
  TGI: > 100 µM
[21]
  TGI: > 100 µM
[22]
  TGI: > 100 µM
[23]
  TGI: > 100 µM
[24]
  TGI: > 100 µM
[25]
  TGI: > 100 µM
[26]
  TGI: > 100 µM
[27]
  TGI: > 100 µM
[28]
  TGI: > 100 µM
[29]
  TGI: > 100 µM
[30]
  TGI: > 100 µM
[32]
  TGI: > 100 µM
[33]
  TGI: > 100 µM
[56]
  TGI: > 100 µM
[34]
  TGI: > 100 µM
[35]
  TGI: > 100 µM
[36]
  TGI: > 100 µM
[37]
  TGI: > 100 µM
[38]
  TGI: > 100 µM
[39]
  TGI: > 100 µM
[40]
  TGI: > 100 µM
[41]
  TGI: > 100 µM
[42]
  TGI: > 100 µM
[43]
  TGI: > 100 µM
[44]
  TGI: > 100 µM
[45]
  TGI: > 100 µM
[57]
  TGI: > 100 µM
[46]
  TGI: > 100 µM
[47]
  TGI: > 100 µM
[49]
  TGI: > 100 µM
[50]
  TGI: > 100 µM
[51]
  TGI: > 100 µM
[52]
  TGI: > 100 µM
[53]
  TGI: > 100 µM
[54]
  TGI: > 100 µM
[58]
  TGI: > 100 µM

## Nc1c(-c2nc3ccccc3s2)c2ccc([N+](=O)[O-])cc2c(=O)n1-c1cccc(C(=O)O)c1
[3]
  TGI: 64.7 µM
[4]
  TGI: > 100 µM
[6]
  TGI: 64.1 µM
[9]
  TGI: > 100 µM
[55]
  TGI: 92.8 µM
[11]
  TGI: > 100 µM
[12]
  TGI: 75.4 µM
[14]
  TGI: 84.2 µM
[15]
  TGI: 56.8 µM
[16]
  TGI: > 100 µM
[17]
  TGI: > 100 µM
[19]
  TGI: 44.1 µM
[20]
  TGI: 52 µM
[21]
  TGI: 68.6 µM
[22]
  TGI: > 100 µM
[27]
  TGI: > 100 µM
[28]
  TGI: > 100 µM
[29]
  TGI: 85.4 µM
[30]
  TGI: > 100 µM
[59]
  TGI: 37.7 µM
[31]
  TGI: > 100 µM
[32]
  TGI: > 100 µM
[33]
  TGI: 52.3 µM
[56]
  TGI: > 100 µM
[34]
  TGI: > 100 µM
[35]
  TGI: 71.5 µM
[36]
  TGI: 64.3 µM
[38]
  TGI: 45.1 µM
[39]
  TGI: > 100 µM
[40]
  TGI: 61.9 µM
[41]
  TGI: > 100 µM
[42]
  TGI: > 100 µM
[43]
  TGI: 71.8 µM
[44]
  TGI: > 100 µM
[45]
  TGI: 37.8 µM
[57]
  TGI: 72.9 µM
[46]
  TGI: > 100 µM
[47]
  TGI: > 100 µM
[48]
  TGI: 59.8 µM
[50]
  TGI: 80.3 µM
[51]
  TGI: > 100 µM
[52]
  TGI: 56 µM
[53]
  TGI: 58.6 µM

## CON(C)C(C#N)=C(C#N)C#N
[1]
  TGI: > 10 µM
[2]
  TGI: > 10 µM
[3]
  TGI: > 10 µM
[4]
  TGI: > 10 µM
[5]
  TGI: > 10 µM
[6]
  TGI: > 10 µM
[7]
  TGI: > 10 µM
[8]
  TGI: > 10 µM
[9]
  TGI: > 10 µM
[10]
  TGI: > 10 µM
[55]
  TGI: > 10 µM
[11]
  TGI: > 10 µM
[12]
  TGI: > 10 µM
[13]
  TGI: > 10 µM
[14]
  TGI: > 10 µM
[15]
  TGI: > 10 µM
[16]
  TGI: > 10 µM
[17]
  TGI: > 10 µM
[18]
  TGI: > 10 µM
[19]
  TGI: > 10 µM
[20]
  TGI: > 10 µM
[21]
  TGI: > 10 µM
[23]
  TGI: > 10 µM
[24]
  TGI: > 10 µM
[25]
  TGI: > 10 µM
[26]
  TGI: > 10 µM
[27]
  TGI: > 10 µM
[28]
  TGI: > 10 µM
[29]
  TGI: > 10 µM
[30]
  TGI: > 10 µM
[59]
  TGI: > 10 µM
[31]
  TGI: > 10 µM
[32]
  TGI: > 10 µM
[33]
  TGI: > 10 µM
[56]
  TGI: > 10 µM
[34]
  TGI: > 10 µM
[35]
  TGI: > 10 µM
[37]
  TGI: > 10 µM
[38]
  TGI: > 10 µM
[39]
  TGI: > 10 µM
[41]
  TGI: > 10 µM
[42]
  TGI: > 10 µM
[43]
  TGI: > 10 µM
[44]
  TGI: > 10 µM
[45]
  TGI: > 10 µM
[46]
  TGI: > 10 µM
[47]
  TGI: > 10 µM
[48]
  TGI: > 10 µM
[49]
  TGI: > 10 µM
[50]
  TGI: > 10 µM
[51]
  TGI: > 10 µM
[52]
  TGI: > 10 µM
[53]
  TGI: > 10 µM
[54]
  TGI: > 10 µM
[58]
  TGI: > 10 µM
